Source: patent publication US5872144A, “4-aminoethoxyindazole derivatives” (American Home Products Corporation, priority 1998, dated 1999)

Tests used:
[1] = biological target: T1, dopamine autoreceptor (D2) (Rattus norvegicus, UniProt P61169); assay: 3H-quinpirole (D2 Quin.) binding, homogenized rat striatal brain tissue, affinity for dopamine autoreceptor
T1 construct: homogenized rat striatal brain tissue; from tissue; host or cells: rat striatum, homogenate
Description: Affinity for the dopamine autoreceptor was established by a modification of the standard experimental test procedure of Seemen and Schaus, European Journal of Pharmacology 203, 105-109, 1991, wherein homogenized rat striatal brain tissue is incubated with ^3 H-quinpirole (Quin.) and various concentrations of test compound, filtered and washed and counted in a Betaplate scintillation counter.

[2] = biological target: T2, dopamine D-2 receptor (Rattus norvegicus, UniProt P61169); assay: 3H-spiroperidol (D2 Spiper.) binding, homogenized limbic brain tissue
T2 construct: from tissue; host or cells: limbic brain tissue, homogenate
T2 sequence (P61169 whole entry): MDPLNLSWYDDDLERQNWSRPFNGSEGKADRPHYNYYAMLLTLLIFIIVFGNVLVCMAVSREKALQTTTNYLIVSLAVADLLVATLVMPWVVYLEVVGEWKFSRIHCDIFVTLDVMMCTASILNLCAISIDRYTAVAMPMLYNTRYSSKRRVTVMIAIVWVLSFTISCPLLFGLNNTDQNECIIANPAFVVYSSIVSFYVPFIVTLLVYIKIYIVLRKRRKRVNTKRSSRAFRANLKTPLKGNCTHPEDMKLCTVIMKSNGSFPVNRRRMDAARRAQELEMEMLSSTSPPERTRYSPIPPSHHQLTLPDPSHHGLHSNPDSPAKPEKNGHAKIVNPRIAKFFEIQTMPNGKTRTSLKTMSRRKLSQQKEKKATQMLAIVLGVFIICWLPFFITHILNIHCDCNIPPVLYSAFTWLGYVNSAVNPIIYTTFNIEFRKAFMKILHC
Description: High affinity for the dopamine D-2 receptor was established by the standard experimental test procedure of Fields, et al., Brain Res., 136, 578 (1977) and Yamamura et al., eds., Neurotransmitter Receptor Binding, Raven Press, N.Y. (1978) wherein homogenized limbic brain tissue is incubated with ^3 H-spiroperidol (Spiper.) and various concentrations of test compound, filtered and washed and shaken with Hydrofluor scintillation cocktail (National Diagnostics) and counted in a Packard 460 CD scintillation counter.

[3] = system: dopamine D2 receptor; assay: Intrinsic activity at the dopamine D2 receptor, ratio LowAg/HighAg; type: binding; settings: D2 Spiper IC50 / D2 Quin. IC50 (LowAg/HighAg)
Description: Efforts to induce antipsychotic activity with dopamine autoreceptor agonists have been successful (Dorsini et al., Adv. Biochem. […] et al., Science, 200, 567-568, 1975; and […] et al., Psychiatry, 398-402, 1986). […] Pharm., 42, 432-438, (1993)]. Intrinsic activity is predicted using the ratio of the "low-affinity agonist" (LowAg) state of the receptor and the "high-affinity agonist" ([…]) state of the receptor, […]. These ratios correlate with the agonist, partial agonist, and antagonist activities of a given compound, which activities characterize a compounds ability to elicit an antipsychotic effect. […] Activation of the dopamine autoreceptors results in reduced neuronal firing a well as inhibition of dopamine synthesis and release and therefore provide a means of controlling hyperactivity of the dopaminergic systems. The compounds of this invention were also found to have high intrinsic activity and therefore they can behave as the natural neurotransmitter i.e. as full agonists. […] Affinity for the dopamine autoreceptor was established by a modification of the standard experimental test procedure of Seemen and Schaus, European Journal of Pharmacology 203, 105-109, 1991, wherein homogenized rat striatal brain tissue is incubated with ^3 H-quinpirole (Quin.) and various concentrations of test compound, filtered and washed and counted in a Betaplate scintillation counter. […]

T1 sequence (P61169 whole entry): as above

## c1cc(OCCNCc2ccsc2)c2cn[nH]c2c1 [Example 3, [2-(1H-Indazol-4-yloxy)-ethyl]-thiophen-3-ylmethyl-amine]
[1]
  IC50: 2.78 nM

## c1csc(CNCCOc2cccc3[nH]ncc23)c1 [Example 2, [2-(1H-Indazol-4-yloxy)-ethyl]-thiophen-2-ylmethyl-amine]
[1]
  IC50: 4.3 nM
[2]
  IC50: 1090 nM
[3]
  Ratio: 254

## c1ccc(CNCCOc2cccc3[nH]ncc23)cc1 [Example 1, Benzyl-[2-(1H-indazo-4-yloxy)-ethyl]-amine]
[1]
  IC50: 2.23 nM
[2]
  IC50: 333 nM
[3]
  Ratio: 151
